Reference: patent US4355038A, “α-Substituted ureido-benzylpenicillanic acids” (Chugai Seiyaku Kabushiki Kaisha, priority 1980, dated 1982)
In brackets after ≈: the same amount, converted by molar mass.

Tests used:
[1] = system: Pseudomonas aeruginosa J-272; test: ED50 in mice infected intraperitoneally with Pseudomonas aeruginosa; format: in vivo, ddY male mice; conditions: subcutaneous 1 h and 3 h after inoculation, 1 × 10^4 cells inoculated i.p. in 5% mucin, survival five days after injection
Experimental: Five-week-old ddY male mice (five constituting one group) weighing 21 to 25 g on average were administered intraperitoneally with 5% mucin suspensions of test microorganisms that were incubated in brain heart infusion agar plates overnight at 37° C.
One hour and three hours after the inoculation, the mice were injected subcutaneously with various concentrations of the test compounds. The ED50 of each test compound was determined from the number of the mice that were still alive five days after injection of the respective doses.

[2] = system: Pseudomonas aeruginosa J-272; test: MIC, agar plate doubling dilution method; format: cell-based; conditions: J272, HI agar, 37° C., 20 hours, read-out: minimum inhibitory concentration (MIC)
Experimental: (§1) Invitro antibacterial activity was measured by the agar plate doubling dilution method described below. A test culture incubated overnight in a heart infusion broth was diluted by 100 to 1000 fold and one […] of the culture was inoculated on heart infusion agars (HI agar) containing various concentrations of a specific compound and the inoculates were incubated at 37° C. for 20 hours.

Shigella flexneri 2b = test: MIC, agar plate doubling dilution method; format: cell-based; conditions: HI agar, 37° C., 20 hours, read-out: minimum inhibitory concentration (MIC)
Experimental: as §1

Salmonella paratyphi A = test: MIC, agar plate doubling dilution method; format: cell-based; conditions: Salmonella enterica, 20 h, read-out: minimum inhibitory concentration (MIC)
Experimental: as §1

[3] = system: Bacillus subtilis POI-219; test: MIC, agar plate doubling dilution method; format: cell-based; conditions: POI219, HI agar, 37° C., 20 hours, read-out: minimum inhibitory concentration (MIC)
Experimental: as §1

Escherichia coli NIHJ = test: MIC, agar plate doubling dilution method; format: cell-based; conditions: HI agar, 37° C., 20 hours, read-out: minimum inhibitory concentration (MIC)
Experimental: as §1

[4] = system: Pseudomonas aeruginosa J-169; test: MIC, agar plate doubling dilution method; format: cell-based; conditions: J169, HI agar, 37° C., 20 hours, read-out: minimum inhibitory concentration (MIC)
Experimental: as §1

Proteus mirabilis 9' = test: MIC, agar plate doubling dilution method; format: cell-based; conditions: HI agar, 37° C., 20 hours, read-out: minimum inhibitory concentration (MIC)
Experimental: as §1

[5] = system: Staphylococcus aureus 209P; test: MIC, agar plate doubling dilution method; format: cell-based; conditions: HI agar, 37° C., 20 hours, read-out: minimum inhibitory concentration (MIC)
Experimental: as §1

[6] = system: Klebsiella pneumoniae 15c; test: MIC, agar plate doubling dilution method; format: cell-based; conditions: HI agar, 37° C., 20 hours, read-out: minimum inhibitory concentration (MIC)
Experimental: as §1

[7] = system: Pseudomonas aeruginosa J-169-CM-222; test: MIC, agar plate doubling dilution method; format: cell-based; conditions: J169CM222, HI agar, 37° C., 20 hours, read-out: minimum inhibitory concentration (MIC)
Experimental: as §1

| SMILES | ED50 (SC) [1] | MIC [2] | MIC (Shigella flexneri 2b) | MIC (Salmonella paratyphi A) | MIC [3] | MIC (Escherichia coli NIHJ) | MIC [4] | MIC (Proteus mirabilis 9') | MIC [5] | MIC [6] | MIC [7] |
| --- | --- | --- | --- | --- | --- | --- | --- | --- | --- | --- | --- |
| CC1(C)S[C@@H]2[C@H](NC(=O)[C@H](NC(=O)N(CCCO)C(=O)c3ccc(O)c(O)c3)c3ccccc3)C(=O)N2[C@H]1C(=O)O [compound (a), 6-[D(-)-α-{3-(3,4-dihydroxybenzoyl)-3-(3-hydroxypropyl)-1-ureido}-α-phenylacetamido]penicillanic acid] | 0.61 mg/head | 0.4 µg/mL (≈ 0.682 µM) | ≤ 0.1 µg/mL | ≤ 0.1 µg/mL | 0.2 µg/mL (≈ 0.341 µM) | 0.4 µg/mL (≈ 0.682 µM) | 0.78 µg/mL (≈ 1.33 µM) | 1.56 µg/mL (≈ 2.66 µM) | 0.78 µg/mL (≈ 1.33 µM) | 0.4 µg/mL (≈ 0.682 µM) | 3.12 µg/mL (≈ 5.32 µM) |
| CC1(C)S[C@@H]2[C@H](NC(=O)[C@H](NC(=O)N(CCO)C(=O)c3ccc(O)c(O)c3)c3ccccc3)C(=O)N2[C@H]1C(=O)O [compound (b), 6-[D(-)-α-{3-(3,4-dihydroxybenzoyl)-3-(2-hydroxyethyl)-1-ureido}-α-phenylacetamide]penicillanic acid] | 1.20 mg/head | 0.78 µg/mL (≈ 1.36 µM) | ≤ 0.1 µg/mL | ≤ 0.1 µg/mL | 0.78 µg/mL (≈ 1.36 µM) | 6.25 µg/mL (≈ 10.9 µM) | 3.12 µg/mL (≈ 5.45 µM) | 3.12 µg/mL (≈ 5.45 µM) | 1.56 µg/mL (≈ 2.72 µM) | 3.12 µg/mL (≈ 5.45 µM) | 25 µg/mL (≈ 43.7 µM) |
| CC1(C)S[C@@H]2[C@H](NC(=O)[C@H](NC(=O)N(CCOCCO)C(=O)c3ccc(O)c(O)c3)c3ccccc3)C(=O)N2[C@H]1C(=O)O [compound (c), 6-[D(-)-α-[3-(3,4-dihydroxybenzoyl)-3-{2-(2-hydroxyethoxy)ethyl}-1-ureidol]-α-phenylacetamido]-penicillanic acid] | 1.48 mg/head | 0.2 µg/mL (≈ 0.324 µM) | ≤ 0.1 µg/mL | ≤ 0.1 µg/mL | 0.1 µg/mL (≈ 0.162 µM) | 0.4 µg/mL (≈ 0.649 µM) | 0.78 µg/mL (≈ 1.26 µM) | 1.56 µg/mL (≈ 2.53 µM) | 0.4 µg/mL (≈ 0.649 µM) | 0.4 µg/mL (≈ 0.649 µM) | 1.56 µg/mL (≈ 2.53 µM) |
| COCCN(C(=O)N[C@@H](C(=O)N[C@@H]1C(=O)N2[C@@H]1SC(C)(C)[C@@H]2C(=O)O)c1ccccc1)C(=O)c1ccc(O)c(O)c1 [compound (d), 6-[D(-)-α-{3-(3,4-dihydroxybenzoyl)-3-(2-methyoxyethyl)-1-ureido}-α-phenylacetamide]-penicillanic acid] | 1.52 mg/head | 0.78 µg/mL (≈ 1.33 µM) | ≤ 0.1 µg/mL | ≤ 0.1 µg/mL | 0.4 µg/mL (≈ 0.682 µM) | 0.4 µg/mL (≈ 0.682 µM) | 3.12 µg/mL (≈ 5.32 µM) | 0.2 µg/mL (≈ 0.341 µM) | 0.78 µg/mL (≈ 1.33 µM) | 0.2 µg/mL (≈ 0.341 µM) | 3.12 µg/mL (≈ 5.32 µM) |
| CC(=O)OCCCN(C(=O)N[C@@H](C(=O)N[C@@H]1C(=O)N2[C@@H]1SC(C)(C)[C@@H]2C(=O)O)c1ccccc1)C(=O)c1ccc(O)c(O)c1 [compound (e), 6-[D(-)-α-{3-(3,4-dihydroxybenzoyl)-3-(3-acetoxypropyl)-1-ureido}-α-phenylacetamido]-penicillanic acid] | 1.71 mg/head | 0.4 µg/mL (≈ 0.636 µM) | ≤ 0.1 µg/mL | ≤ 0.1 µg/mL | 0.4 µg/mL (≈ 0.636 µM) | 0.78 µg/mL (≈ 1.24 µM) | 3.12 µg/mL (≈ 4.96 µM) | 0.78 µg/mL (≈ 1.24 µM) | 1.56 µg/mL (≈ 2.48 µM) | 0.4 µg/mL (≈ 0.636 µM) | 6.25 µg/mL (≈ 9.94 µM) |
| CC1(C)S[C@@H]2[C@H](NC(=O)[C@H](NC(=O)N(CCCO)C(=O)c3ccc(O)c(O)c3)c3ccc(O)cc3)C(=O)N2[C@H]1C(=O)O [compound (f), 6-[D(-)-α-{3-(3,4-dihydroxybenzoyl)-3-(3-hydroxypropyl)-1-ureido}-α-(4-hydroxyphenyl)acetamido]penicillanic acid] | 1.18 mg/head | 0.2 µg/mL (≈ 0.332 µM) | ≤ 0.1 µg/mL | ≤ 0.1 µg/mL | 0.4 µg/mL (≈ 0.664 µM) | 0.78 µg/mL (≈ 1.29 µM) | 0.78 µg/mL (≈ 1.29 µM) | 1.56 µg/mL (≈ 2.59 µM) | 0.78 µg/mL (≈ 1.29 µM) | 0.4 µg/mL (≈ 0.664 µM) | 3.12 µg/mL (≈ 5.18 µM) |
| CN(C(=O)N[C@@H](C(=O)N[C@@H]1C(=O)N2[C@@H]1SC(C)(C)[C@@H]2C(=O)O)c1ccccc1)C(=O)c1ccc(O)c(O)c1 [compound Z, 6-[D(-)-α-{3-(3,4-dihydroxybenzoyl)-3-methyl-1-ureido}-α-phenylacetamido]penicillanic acid, reference compound] | 2.30 mg/head | 0.1 µg/mL (≈ 0.184 µM) | ≤ 0.1 µg/mL | ≤ 0.1 µg/mL | 0.1 µg/mL (≈ 0.184 µM) | 0.2 µg/mL (≈ 0.369 µM) | 0.2 µg/mL (≈ 0.369 µM) | 0.78 µg/mL (≈ 1.44 µM) | 0.4 µg/mL (≈ 0.737 µM) | ≤ 0.1 µg/mL | 0.4 µg/mL (≈ 0.737 µM) |
| CCN1CCN(C(=O)N[C@@H](C(=O)N[C@@H]2C(=O)N3[C@@H]2SC(C)(C)[C@@H]3C(=O)O)c2ccccc2)C(=O)C1=O [piperacillin, 6-[D(-)-α-(4-ethyl-2,3-dioxo-1-piperazinylcarbonylamino)phenylacetamido]penicillanic acid, reference compound] | 10.0 mg/head | 12.5 µg/mL (≈ 24.2 µM) | 0.78 µg/mL (≈ 1.51 µM) | 0.4 µg/mL (≈ 0.773 µM) | 0.2 µg/mL (≈ 0.386 µM) | 0.2 µg/mL (≈ 0.386 µM) | 12.5 µg/mL (≈ 24.2 µM) | 0.78 µg/mL (≈ 1.51 µM) | ≤ 0.2 µg/mL | 3.12 µg/mL (≈ 6.03 µM) | 25 µg/mL (≈ 48.3 µM) |
